Measured values: the NIST ThermoML archive (doi:10.1021/je700408x)
± gives the expanded uncertainty stated by the source.

Settings: Liquid; for mass density: 303.15 K, 101.33 kPa, Pycnometric method; for vapor or sublimation pressure / Normal boiling temperature: Ebulliometric method (Recirculating still)

vapor or sublimation pressure (355.05 K) | vapor or sublimation pressure (460.95 K) | Structure (SMILES) | mass density | vapor or sublimation pressure (417.05 K) | Normal boiling temperature | vapor or sublimation pressure (391.95 K) | vapor or sublimation pressure (357.75 K) | vapor or sublimation pressure (345.45 K)
 |  | ClC(Cl)C(Cl)Cl [1,1,2,2-tetrachloroethane] | 1578.59 ± 14 kg/m3 | 95.3 ± 2 kPa | 145.20 ± 0.41 °C |  |  | 
 |  | ClC(Cl)=C(Cl)Cl [tetrachloroethene] | 1606.39 ± 14 kg/m3 |  | 121.00 ± 0.41 °C | 95.3 ± 2 kPa |  | 
95.3 ± 2 kPa |  | ClCCCl [1,2-dichloroethane] | 1238.41 ± 8.6 kg/m3 |  | 83.80 ± 0.41 °C |  |  | 
 | 95.3 ± 2 kPa | C[S+](C)[O-] [dimethyl sulfoxide] | 1090.4 ± 6.7 kg/m3 |  | 189.04 ± 0.41 °C |  |  | 
 |  | ClC=C(Cl)Cl [trichloroethene] | 1451.42 ± 12 kg/m3 |  | 87.10 ± 0.41 °C |  | 95.3 ± 2 kPa | 
 |  | CC(Cl)(Cl)Cl [1,1,1-trichloroethane] | 1320.97 ± 9.8 kg/m3 |  | 74.20 ± 0.41 °C |  |  | 95.3 ± 2 kPa
